Patent US20180214428A1, “3-(1H-INDOL-2-YL)-1H-PYRAZOLO[3,4-B]PYRIDINES AND THERAPEUTIC USES THEREOF” (Samumed, LLC, priority 2015, published 2018)

Experiments:
[1] = test system: Wnt activity (Sp5-Luc reporter gene, SW480 colon carcinoma cells); experiment: Screening assay for Wnt activity: Sp5-Luc reporter gene assay in SW480 cells; assay type: cell-based, human; conditions: Homo sapiens; for EC50: overnight incubation; for inhibition at 10 µM: given for EC50 of >10 μM, read-out: percent inhibition at 10 μM
Procedure, shortened: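 SW480 cells stably transduced with a luciferase reporter driven by an Sp5 promoter of eight TCF/LEF sites were plated at 4,000 cells/well in 1% FBS medium. They were exposed overnight at 37° C to a 10-point 1:3 dilution series from 10 μM (0.1% DMSO). Luminescence was normalized to DMSO for four-parameter EC50, or percent inhibition at 10 μM.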

SW480 colon cancer cells = experiment: Cell viability assay (CellTiter-Blue) in SW480 colon cancer cells; assay type: cell-based, human; conditions: Homo sapiens; for EC50: 96 h, four days, CellTiter-Blue; for inhibition at 10 µM: given for EC50 of >10 μM, read-out: percent inhibition at 10 μM
Procedure, shortened: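 Resazurin reduction (Ex 560/Em 590 nm, ~3 h reagent incubation) served as the viability read-out after SW480 cells were treated for four days at 37 °C. Doses ran from 10 μM down to 0.0045 μM in eight 1:3 steps. Curves fitted non-linearly for EC50, else % inhibition at 10 μM reported.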

[2] = test system: primary human fibroblasts derived from IPF patients (LL29 cells); experiment: Inhibition of the fibrotic process: αSMA staining in TGF-β1 treated LL29 fibroblasts; assay type: cell-based; conditions: Homo sapiens, Fibroblast; for EC50: 96 h, TGF-β1 20 ng/mL, 4 days, % αSMA positive cells
Procedure, shortened: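 IPF patient-derived LL29 fibroblasts in 1% FBS medium got compound (11-point, 10 μM to 1.87 nM, 0.1% DMSO) plus TGF-β1 20 ng/mL, 4 days at 37° C. αSMA-positive live cells (SYTOX-excluded) were imaged, normalized to TGF-β1 controls and fitted for EC50; % inhibition at 10 μM given when EC50 >10 μM.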

Compound	EC50 [1] [nM]	EC50 (SW480 colon cancer cells) [nM]	inhibition at 10 µM (SW480 colon cancer cells) [%]	EC50 [2] [nM]	inhibition at 10 µM ([2]; at 10 μM, given for EC50 of >10 μM, TGF-β1, αSMA, read-out: percent inhibition at 10 μM) [%]	inhibition at 10 µM [1] [%]
O=C(Nc1cncc(-c2cnc3[nH]nc(-c4cc5c(-c6ccccc6F)cccc5[nH]4)c3c2)c1)C1CCCC1 [Compound 66, N-(5-(3-(4-(2-Fluorophenyl)-1H-indol-2-yl)-1H-pyrazolo[3,4-b]pyridin-5-yl)pyridin-3-yl)cyclopentanecarboxamide]	1150	> 10000	53.2	6530	–	–
CC(C)(C)C(=O)Nc1cncc(-c2cnc3[nH]nc(-c4cc5c(-c6cccnc6)cccc5[nH]4)c3c2)c1 [Compound 78, N-(5-(3-(4-(Pyridin-3-yl)-1H-indol-2-yl)-1H-pyrazolo[3,4-b]pyridin-5-yl)pyridin-3-yl)pivalamide]	634	1730	–	> 10000	24.2	–
c1cncc(-c2cccc3[nH]c(-c4n[nH]c5ncc(-c6cncc(CN7CCCCC7)c6)cc45)cc23)c1 [Compound 84, 5-(5-(Piperidin-1-ylmethyl)pyridin-3-yl)-3-(4-(pyridin-3-yl)-1H-indol-2-yl)-1H-pyrazolo[3,4-b]pyridine]	> 10000	8470	–	5970	–	48.5
O=C(Nc1cncc(-c2cnc3[nH]nc(-c4cc5c(-c6cccnc6)cccc5[nH]4)c3c2)c1)C1CCC1 [Compound 89, N-(5-(3-(4-(Pyridin-3-yl)-1H-indol-2-yl)-1H-pyrazolo[3,4-b]pyridin-5-yl)pyridin-3-yl)cyclobutanecarboxamide]	230	565	–	147	–	–
Cc1ccncc1-c1cnc2[nH]nc(-c3cc4c(-c5ccncc5)cccc4[nH]3)c2c1 [Compound 99, 5-(4-Methylpyridin-3-yl)-3-(4-(pyridin-4-yl)-1H-indol-2-yl)-1H-pyrazolo[3,4-b]pyridine]	> 10000	> 10000	36.8	2610	–	69.3
c1cc(-c2ccncc2)c2cc(-c3n[nH]c4ncc(-c5ccncc5)cc34)[nH]c2c1 [Compound 111, 5-(Pyridin-4-yl)-3-(4-(pyridin-4-yl)-1H-indol-2-yl)-1H-pyrazolo[3,4-b]pyridine]	> 10000	> 10000	36.4	2770	–	17.6
O=C(Nc1cncc(-c2cnc3[nH]nc(-c4cc5c(-c6ccncc6)cccc5[nH]4)c3c2)c1)C1CCCCC1 [Compound 115, N-(5-(3-(4-(Pyridin-4-yl)-1H-indol-2-yl)-1H-pyrazolo[3,4-b]pyridin-5-yl)pyridin-3-yl)cyclohexanecarboxamide]	5420	> 10000	24.3	4980	–	–
FC1(F)CCN(Cc2cncc(-c3cnc4[nH]nc(-c5cc6c(-c7ccncc7)cccc6[nH]5)c4c3)c2)C1 [Compound 118, 5-(5-((3,3-Difluoropyrrolidin-1-yl)methyl)pyridin-3-yl)-3-(4-(pyridin-4-yl)-1H-indol-2-yl)-1H-pyrazolo[3,4-b]pyridine]	708	4140	–	760	–	–
CN(C)c1cncc(-c2cnc3[nH]nc(-c4cc5c(N6CCCCC6)cccc5[nH]4)c3c2)c1 [Compound 151, N,N-Dimethyl-5-(3-(4-(piperidin-1-yl)-1H-indol-2-yl)-1H-pyrazolo[3,4-b]pyridin-5-yl)pyridin-3-amine]	982	5260	–	1630	–	–
O=C(Nc1cncc(-c2cnc3[nH]nc(-c4cc5c(N6CCCCC6)cccc5[nH]4)c3c2)c1)c1ccccc1 [Compound 155, N-(5-(3-(4-(Piperidin-1-yl)-1H-indol-2-yl)-1H-pyrazolo[3,4-b]pyridin-5-yl)pyridin-3-yl)benzamide]	3470	> 10000	31	5170	–	–
CCCCC(=O)Nc1cncc(-c2cnc3[nH]nc(-c4cc5c(N6CCCCC6)cccc5[nH]4)c3c2)c1 [Compound 163, N-(5-(3-(4-(Piperidin-1-yl)-1H-indol-2-yl)-1H-pyrazolo[3,4-b]pyridin-5-yl)pyridin-3-yl)pentanamide]	3390	> 10000	38	8110	–	–
CC(C)CC(=O)Nc1cncc(-c2cnc3[nH]nc(-c4cc5c(N6CCN(C)CC6)cccc5[nH]4)c3c2)c1 [Compound 202, 3-Methyl-N-(5-(3-(4-(4-methylpiperazin-1-yl)-1H-indol-2-yl)-1H-pyrazolo[3,4-b]pyridin-5-yl)pyridin-3-yl)butanamide]	4470	4840	–	2310	–	–
CC(C)C(=O)Nc1cncc(-c2cnc3[nH]nc(-c4cc5c(N6CCN(C)CC6)cccc5[nH]4)c3c2)c1 [Compound 209, N-(5-(3-(4-(4-Methylpiperazin-1-yl)-1H-indol-2-yl)-1H-pyrazolo[3,4-b]pyridin-5-yl)pyridin-3-yl)isobutyramide]	2710	> 10000	41.5	5620	–	–

More lines, main results first:

EC50 [1] [nM]	EC50 (SW480 colon cancer cells) [nM]	Compound	inhibition at 10 µM (SW480 colon cancer cells) [%]	EC50 [2] [nM]	inhibition at 10 µM ([2]; at 10 μM, given for EC50 of >10 μM, TGF-β1, αSMA, read-out: percent inhibition at 10 μM) [%]	inhibition at 10 µM [1] [%]
570	3520	c1cncc(-c2cnc3[nH]nc(-c4cc5c(-c6cccnc6)cccc5[nH]4)c3c2)c1 [Compound 74, 5-(Pyridin-3-yl)-3-(4-(pyridin-3-yl)-1H-indol-2-yl)-1H-pyrazolo[3,4-b]pyridine]	–	410	–	–
450	3700	CC(C)Nc1cncc(-c2cnc3[nH]nc(-c4cc5c(-c6cccnc6)cccc5[nH]4)c3c2)c1 [Compound 81, N-Isopropyl-5-(3-(4-(pyridin-3-yl)-1H-indol-2-yl)-1H-pyrazolo[3,4-b]pyridin-5-yl)pyridin-3-amine]	–	1410	–	–
3820	3590	c1ccc(CNCc2cncc(-c3cnc4[nH]nc(-c5cc6c(-c7ccncc7)cccc6[nH]5)c4c3)c2)cc1 [Compound 116, N-Benzyl-1-(5-(3-(4-(pyridin-4-yl)-1H-indol-2-yl)-1H-pyrazolo[3,4-b]pyridin-5-yl)pyridin-3-yl)methanamine]	–	2530	–	–
> 10000	> 10000	c1ccc(-c2cnc3[nH]nc(-c4cc5c(-c6ccncc6)cccc5[nH]4)c3c2)nc1 [Compound 120, 5-(Pyridin-2-yl)-3-(4-(pyridin-4-yl)-1H-indol-2-yl)-1H-pyrazolo[3,4-b]pyridine]	22.8	642	–	16.1
174	726	Nc1cncc(-c2cnc3[nH]nc(-c4cc5c(-c6ccccn6)cccc5[nH]4)c3c2)c1 [Compound 121, 5-(3-(4-(Pyridin-2-yl)-1H-indol-2-yl)-1H-pyrazolo[3,4-b]pyridin-5-yl) pyridin-3-amine]	–	241	–	–
7010	4910	CCNCc1cncc(-c2cnc3[nH]nc(-c4cc5c(-c6ccccn6)cccc5[nH]4)c3c2)c1 [Compound 124, N-((5-(3-(4-(Pyridin-2-yl)-1H-indol-2-yl)-1H-pyrazolo[3,4-b]pyridin-5-yl)pyridin-3-yl)methyl)ethanamine]	–	1800	–	–
390	701	O=C(Nc1cncc(-c2cnc3[nH]nc(-c4cc5c(-c6ccccn6)cccc5[nH]4)c3c2)c1)c1ccccc1 [Compound 128, N-(5-(3-(4-(Pyridin-2-yl)-1H-indol-2-yl)-1H-pyrazolo[3,4-b]pyridin-5-yl)pyridin-3-yl)benzamide]	–	468	–	–
4530	1190	c1ccc(-c2cccc3[nH]c(-c4n[nH]c5ncc(-c6cncc(CN7CCCC7)c6)cc45)cc23)nc1 [Compound 131, 3-(4-(Pyridin-2-yl)-1H-indol-2-yl)-5-(5-(pyrrolidin-1-ylmethyl)pyridin-3-yl)-1H-pyrazolo[3,4-b]pyridine]	–	970	–	–
1010	3250	CC(C)(C)CC(=O)Nc1cncc(-c2cnc3[nH]nc(-c4cc5c(-c6ccccn6)cccc5[nH]4)c3c2)c1 [Compound 133, 3,3-Dimethyl-N-(5-(3-(4-(pyridin-2-yl)-1H-indol-2-yl)-1H-pyrazolo[3,4-b]pyridin-5-yl)pyridin-3-yl)butanamide]	–	753	–	–
385	4710	CCCCC(=O)Nc1cncc(-c2cnc3[nH]nc(-c4cc5c(-c6ccccn6)cccc5[nH]4)c3c2)c1 [Compound 136, N-(5-(3-(4-(Pyridin-2-yl)-1H-indol-2-yl)-1H-pyrazolo[3,4-b]pyridin-5-yl)pyridin-3-yl)pentanamide]	–	2670	–	–
2020	9910	c1ccc(-c2cccc3[nH]c(-c4n[nH]c5ncc(-c6cncnc6)cc45)cc23)nc1 [Compound 143, 3-(4-(Pyridin-2-yl)-1H-indol-2-yl)-5-(pyrimidin-5-yl)-1H-pyrazolo[3,4-b]pyridine]	–	4960	–	–
4640	2830	CCNCc1cncc(-c2cnc3[nH]nc(-c4cc5c(N6CCCCC6)cccc5[nH]4)c3c2)c1 [Compound 150, N-((5-(3-(4-(Piperidin-1-yl)-1H-indol-2-yl)-1H-pyrazolo[3,4-b]pyridin-5-yl)pyridin-3-yl)methyl)ethanamine]	–	2740	–	–
